Measured values reported in patent US7138361B2, “Herbicidal heterocycles” (E. I. du Pont de Nemours and Company, priority 2000, dated 2006).

Assays:
Assay type in all cases: in vivo
[1] = test system: cocklebur (Xanthium strumarium); experiment: Test C postemergence
Text: (§1) Seeds of plant species selected from bermudagrass (Cynodon dactylon), Surinam grass (Brachiaria decumbens), cocklebur (Xanthium strumarium), corn (Zea mays), crabgrass (Digitaria sanguinalis), woolly cupgrass (Eriochloa villosa), giant foxtail (Setaria faberii), goosegrass (Eleusine indica), johnsongrass (Sorghum halepense), kochia (Kochia scoparia), lambsquarters (Chenopodium album), morningglory (Ipomoea hederacea), yellow nutsedge (Cyperus esculentus), pigweed (Amaranthus retroflexus), common ragweed (Ambrosia elatior), soybean (Glycine max) and velvetleaf (Abutilon theophrasti) were planted and treated preemergence with test chemicals formulated in a non-phytotoxic solvent mixture which included a surfactant.
(§2) At the same time, plants selected from these crop and weed species and also winter barley (Hordeum vulgare), blackgrass (Alopecurus myosuroides), canary grass (Phalaris minor), chickweed (Stellaria media), downy brome (Bromus tectorum), green foxtail (Setaria viridis), Italian ryegrass (Lolium multiflorum), wheat (Triticum aestivum), wild oat (Avena fatua) and windgrass (Apera spica-venti) were treated with postemergence applications of some of the test chemicals formulated in the same manner. Plants ranged in height from 2 to 18 cm (1- to 4-leaf stage) for postemergence treatments. Plant species in the flooded paddy test consisted of rice (Oryza saliva), smallflower flatsedge (Cyperus difformis), duck salad (Heteranthera limosa) and barnyardgrass (Echinochloa crus-galli) grown to the 2-leaf stage for testing. Treated plants and controls were maintained in a greenhouse for 12 to 14 days, after which time all species were compared to controls and visually evaluated. Plant response ratings, summarized in Table C, are based on a scale of 0 to 100 where 0 is no effect and 100 is complete control. A dash (-) response means no test result.

corn (Zea mays) = experiment: Test C postemergence
Text: as §1, §2

[2] = test system: crabgrass (Digitaria sanguinalis); experiment: Test C postemergence
Text: as §1, §2

[3] = test system: barnyardgrass (Echinochloa crus-galli); experiment: Test C flooded paddy test; conditions: for Barnyardgrass plant response rating: Flooded Paddy, scale 0 to 100, 0 no effect, 100 complete control; for Plant response rating, Barnyardgrass: flooded paddy test, scale 0 to 100 (0 no effect, 100 complete control)
How it was run: (§3)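 Visual injury score, 0 (no effect) to 100 (complete control), relative to controls. Paddy plants treated at 2-leaf stage; greenhouse hold 12–14 d before rating.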

[4] = test system: duck salad (Heteranthera limosa); experiment: Test C flooded paddy test; conditions: for Ducksalad plant response rating: Flooded Paddy, scale 0 to 100, 0 no effect, 100 complete control; for Plant response rating, Ducksalad: flooded paddy test, scale 0 to 100 (0 no effect, 100 complete control)
How it was run: as §3

rice (Oryza saliva) = experiment: Test C flooded paddy test; conditions: for Rice plant response rating: Flooded Paddy, scale 0 to 100, 0 no effect, 100 complete control; for Plant response rating, Rice: flooded paddy test, scale 0 to 100 (0 no effect, 100 complete control)
How it was run: as §3

[5] = test system: smallflower flatsedge (Cyperus difformis); experiment: Test C flooded paddy test; conditions: for Flatsedge plant response rating: Flooded Paddy, scale 0 to 100, 0 no effect, 100 complete control; for Plant response rating, Flatsedge: flooded paddy test, scale 0 to 100 (0 no effect, 100 complete control)
How it was run: as §3

Nightshade = experiment: Test C preemergence; conditions: visual evaluation after 12 to 14 days
Sunflower [6] = experiment: Test C preemergence; conditions: scale 0 to 100, 0 no effect, 100 complete control
Sunflower [7] = experiment: Test C preemergence; conditions: scale 0 to 100
[8] = Rate 125 g/ha, scale 0 to 100, 0 no effect, 100 complete control
[9] = Rate 250 g/ha, scale 0 to 100 (0 no effect, 100 complete control)
[10] = Rate 500 g/ha, scale 0 to 100 (0 no effect, 100 complete control)

Row | SMILES | Plant response rating, Cocklebur ([1]; Rate 62 g/ha, scale 0 to 100) | Plant response rating, Cocklebur [1, 8] | Plant response rating, Cocklebur [1, 9] | Plant response rating, Cocklebur [1, 10] | Barnyardgrass plant response rating ([3]; Rate 250 g/ha) | Barnyardgrass plant response rating ([3]; Rate 500 g/ha) | Plant response rating, Barnyardgrass ([3]; Rate 62 g/ha) | Plant response rating, Barnyardgrass ([3]; Rate 125 g/ha) | Ducksalad plant response rating ([4]; Rate 250 g/ha) | Ducksalad plant response rating ([4]; Rate 500 g/ha) | Plant response rating, Ducksalad ([4]; Rate 62 g/ha) | Plant response rating, Ducksalad ([4]; Rate 125 g/ha) | Rice plant response rating (rice (Oryza saliva); Rate 250 g/ha) | Rice plant response rating (rice (Oryza saliva); Rate 500 g/ha) | Plant response rating, Rice (rice (Oryza saliva); Rate 125 g/ha) | Flatsedge plant response rating ([5]; Rate 250 g/ha) | Flatsedge plant response rating ([5]; Rate 500 g/ha) | Plant response rating, Flatsedge ([5]; Rate 62 g/ha) | Plant response rating, Flatsedge ([5]; Rate 125 g/ha) | Plant response rating, Rice (rice (Oryza saliva); Rate 62 g/ha) | other results
1 | CCC(C)c1ccn(C2CCN(c3ccc(C)c(OC)c3)C2=O)n1 (stereo not shown) [Compound 80] | 20 | 30 | 30 | 40 | 90 | 90 | 0 | 60 | 100 | 100 | 80 | 100 | 70 | 90 | 50 | 90 | 100 | 90 | 90 |  | Plant response rating, Corn (corn (Zea mays); Rate 62 g/ha, scale 0 to 100): 0; Plant response rating, Corn (corn (Zea mays); [8]): 0; Plant response rating, Corn (corn (Zea mays); [9]): 0; Plant response rating, Corn (corn (Zea mays); [10]): 0; Plant response rating, Crabgrass ([2]; Rate 62 g/ha, scale 0 to 100): 0; Plant response rating, Crabgrass [2, 8]: 0; Plant response rating, Crabgrass [2, 9]: 0; Plant response rating, Crabgrass [2, 10]: 30; Plant response rating (0 to 100), Nightshade (Nightshade; Rate 500 g/ha): 100; Plant response rating, Sunflower (Sunflower [6]; Rate 250 g/ha): 60
2 | CC(C)(C)c1ccn(C2CCN(c3cccc([S+]([O-])C(F)(F)F)c3)C2=O)n1 (stereo not shown) [Compound 101] |  |  |  |  | 50 | 90 | 0 | 40 | 100 | 100 | 0 | 90 | 80 | 90 | 80 | 90 | 100 | 20 | 90 | 0 | Plant response rating, Sunflower (Sunflower [6]; Rate 250 g/ha): 30; Plant response rating, Sunflower (Sunflower [7]; Rate 31 g/ha): 0; Plant response rating, Sunflower (Sunflower [7]; Rate 62 g/ha): 0
3 | CC(C)OC(=O)c1cccc(N2CCC(n3ccc(C(C)(C)C)n3)C2=O)c1 (stereo not shown) [Compound 124] |  |  |  |  | 0 | 0 | 0 | 0 | 40 | 80 | 0 | 20 | 0 | 0 | 0 | 30 | 90 | 0 | 20 | 0 | Plant response rating, Sunflower (Sunflower [6]; Rate 250 g/ha): 0; Plant response rating, Sunflower (Sunflower [7]; Rate 31 g/ha): 0; Plant response rating, Sunflower (Sunflower [7]; Rate 62 g/ha): 0
4 | O=C1C(n2ccc(C3CCC3)n2)SCN1c1cccc(OC(F)(F)F)c1 (stereo not shown) [Compound 38] | 0 | 0 | 0 | 20 | 100 | 100 | 100 | 100 | 90 | 80 | 50 | 90 | 50 | 80 | 30 | 100 | 100 | 100 | 100 | 20 | Plant response rating, Corn (corn (Zea mays); Rate 62 g/ha, scale 0 to 100): 0; Plant response rating, Corn (corn (Zea mays); [8]): 0; Plant response rating, Corn (corn (Zea mays); [9]): 0; Plant response rating, Corn (corn (Zea mays); [10]): 0; Plant response rating, Crabgrass ([2]; Rate 62 g/ha, scale 0 to 100): 0; Plant response rating, Crabgrass [2, 8]: 0; Plant response rating, Crabgrass [2, 9]: 0; Plant response rating, Crabgrass [2, 10]: 30; Plant response rating (0 to 100), Nightshade (Nightshade; Rate 250 g/ha): 60; Plant response rating, Sunflower (Sunflower [6]; Rate 125 g/ha): 0
5 | CCC(C)c1ccn(C2SCN(c3cccc(OC(F)(F)F)c3)C2=O)n1 (stereo not shown) [Compound 40] | 0 | 0 | 0 | 0 | 100 | 100 | 100 | 100 | 100 | 100 | 90 | 100 | 70 | 90 | 40 | 100 | 100 | 100 | 100 | 20 | Plant response rating, Corn (corn (Zea mays); Rate 62 g/ha, scale 0 to 100): 0; Plant response rating, Corn (corn (Zea mays); [8]): 0; Plant response rating, Corn (corn (Zea mays); [9]): 20; Plant response rating, Corn (corn (Zea mays); [10]): 30; Plant response rating, Crabgrass ([2]; Rate 62 g/ha, scale 0 to 100): 0; Plant response rating, Crabgrass [2, 8]: 0; Plant response rating, Crabgrass [2, 9]: 0; Plant response rating, Crabgrass [2, 10]: 0; Plant response rating (0 to 100), Nightshade (Nightshade; Rate 250 g/ha): 40; Plant response rating, Sunflower (Sunflower [6]; Rate 125 g/ha): 0
